Measured values: US20200268835A1, “Compounds For Use in NASH” (Novo Nordisk A/S, priority 2019, published 2020)
Numbered stars: 1 amine (or outer) side, 2 acyl side, 3 side chain; on linkers, the order of the positions; unused ones are H or OH. Square brackets hold non-standard residues; d marks the D form. Side chains are listed from the residue outwards. Peptide text beside a SMILES is read from it. * marks the point of attachment. C18 diacid = O=C(O)CCCCCCCCCCCCCCCCC(=O)*; γGlu = O=C(O)[C@H](CCC(=O)[*:2])N[*:1]; Ac4c = NC1(C(=O)O)CCC1; AEEA = NCCOCCOCC(=O)O; Aib = CC(C)(N)C(=O)O

Assays:
[1] = biological target: T1, human glucagon receptor (Homo sapiens, UniProt P47871); experiment: Glucagon receptor SPA binding assay; settings: 0% HSA; BHK cell membranes; displacement of [125I]-glucagon; read-out: Human GCG R SPA binding 0% HSA IC50
T1 construct: expressed in transfected cells; membrane preparation
T1 sequence (P47871 26-477): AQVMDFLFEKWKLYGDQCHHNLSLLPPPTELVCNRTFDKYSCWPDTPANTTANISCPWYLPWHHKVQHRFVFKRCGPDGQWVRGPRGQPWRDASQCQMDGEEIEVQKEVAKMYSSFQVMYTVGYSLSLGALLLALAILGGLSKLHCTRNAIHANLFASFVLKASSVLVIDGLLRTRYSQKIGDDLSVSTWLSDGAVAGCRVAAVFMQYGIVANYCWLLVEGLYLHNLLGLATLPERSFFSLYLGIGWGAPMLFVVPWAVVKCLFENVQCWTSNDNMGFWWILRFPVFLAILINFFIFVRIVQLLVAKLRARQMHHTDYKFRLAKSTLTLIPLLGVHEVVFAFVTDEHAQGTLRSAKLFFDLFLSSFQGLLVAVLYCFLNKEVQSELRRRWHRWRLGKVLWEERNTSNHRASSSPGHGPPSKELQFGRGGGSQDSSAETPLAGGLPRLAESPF
From the text: (§1) In one embodiment affinity refers to in vitro binding affinity, i.e. performance in a GLP-1 receptor binding affinity assay and in a glucagon receptor binding affinity assay, more particularly to the capability of binding the human GLP-1 receptor and to the human glucagon receptor. The binding affinity of the human GLP-1 receptor may be measured in a binding assay, e.g. in a stably transfected BHK cell line that expresses the human GLP-1 receptor. Radioactively labelled GLP-1 binds to the receptor and may be displaced competitvely by a compound. Binding of radioligand may be determined in the presence of scintillation proximity assay (SPA) beads which bind to cell membranes and when radioactivity is close to the bead it produces light which is measured and is a measure of the in vitro binding affinity. […] The binding affinity of the human glucagon receptor may be measured in a binding affinity assay, e.g. in a stably transfected BHK cell line that expresses the human glucagon receptor. […] Binding of radioligand may be determined in the presence of scintillation proximity assay (SPA) beads which bind to cell membranes and when radioactivity is close to the bead it produces light which is measured and is a measure of the in vitro binding affinity. […] The protein concentration was subsequently determined, and the membranes were stored at −80° C. until use. […]

[2] = biological target: T2, human GLP-1 receptor (Homo sapiens, UniProt P43220); experiment: GLP-1 receptor SPA binding assay; settings: 0% HSA; BHK cell membranes; displacement of [125I]-GLP-1(7-36)-NH2; read-out: Human GLP1 R SPA binding 0% HSA IC50
T2 construct: expressed in transfected cells; membrane preparation
T2 sequence (P43220 24-463): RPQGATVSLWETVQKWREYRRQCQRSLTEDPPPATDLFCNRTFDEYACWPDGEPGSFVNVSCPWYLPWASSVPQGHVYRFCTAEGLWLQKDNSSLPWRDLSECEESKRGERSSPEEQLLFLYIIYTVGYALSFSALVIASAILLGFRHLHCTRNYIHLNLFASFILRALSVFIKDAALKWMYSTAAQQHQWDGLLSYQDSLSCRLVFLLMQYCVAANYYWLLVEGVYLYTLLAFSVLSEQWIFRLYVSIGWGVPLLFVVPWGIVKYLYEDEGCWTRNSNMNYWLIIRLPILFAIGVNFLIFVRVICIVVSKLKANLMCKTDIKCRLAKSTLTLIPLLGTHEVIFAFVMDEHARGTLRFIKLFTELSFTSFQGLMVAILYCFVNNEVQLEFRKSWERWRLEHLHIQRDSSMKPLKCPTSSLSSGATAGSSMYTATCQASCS
From the text: as §1

[3] = Hepatic terminal triglycerides and cholesterol content in diet-induced NASH mice; format: in vivo, male C57BL/6 mice; settings: after 56 days of treatment; FIG. 5A
Description: (§2) At 5 weeks of age, male C57BL/6 mice were purchased from JanVier, France. During the acclimatization and diet-induction period, the mice were group housed ten per cage in custom-made cabinets under a 12:12 light dark cycle (lights on from 3 AM-3 PM) at controlled temperature conditions (22±1° C.; 50±10% relative humidity). Throughout the diet-induction the mice had ad libitum access to AMLN diet (D09100301, Research Diet, USA) (40% fat (18% trans-fat), 40% carbohydrates (20% fructose) and 2% cholesterol) or regular rodent chow (chow vehicle group) (Altromin 1324, Brogaarden, Denmark) and tap water. Throughout the study period the mice had ad libitum access to AMLN diet, except the weight-matched group which was food restricted to lower the body weight to the same level as for animals receiving compound A or compound B, or regular rodent chow (chow vehicle group) and tap water. […]
(§3) During the diet-induction period, body weight was intermittently monitored. […]
Animal experiments were conducted as described in the section “General Methods of Animal Experiments”. Triglycerides and total cholesterol content in liver homogenates were measured in single determinations using autoanalyzer Cobas C-111 with commercial kit (Roche Diagnostics, Germany) according to manufacturer's instructions. […]

[4] = Plasma alanine transferase levels in diet-induced NASH mice; format: in vivo, male C57BL/6 mice; settings: after 56 days of treatment, SC once daily; FIG. 3
Description: as §2, §3
Animal experiments were conducted as described in the section “General Methods of Animal Experiments”. […] All parameters are measured in single determinations using autoanalyzer Cobas C-111 with commercial kit (Roche Diagnostics, Germany) according to the manufacturer's instructions. Data are expressed as mean±SEM (NASH groups n=11-12, Chow Vehicle group n=10). […]

IC50 [1] | IC50 [2] | Structure (SMILES) | effect on liver triglyceride levels compared with the weight-matched (WM) group [3] | effect on plasma ALT levels compared with the weight-matched (WM) group [4]
1.4 nM | 0.3 nM | CC(C)C[C@H](NC(=O)[C@H](Cc1ccc(O)cc1)NC(=O)[C@H](CCCCN)NC(=O)[C@H](CO)NC(=O)[C@H](CC(C)C)NC(=O)[C@H](CC(=O)O)NC(=O)[C@H](CO)NC(=O)[C@@H](NC(=O)[C@H](Cc1ccccc1)NC(=O)[C@@H](NC(=O)CNC(=O)[C@H](CCC(N)=O)NC(=O)C(C)(C)NC(=O)[C@@H](N)Cc1c[nH]cn1)[C@@H](C)O)[C@@H](C)O)C(=O)N[C@@H](CCC(=O)O)C(=O)N[C@@H](CO)C(=O)N[C@@H](CCCCN)C(=O)N[C@@H](CCCNC(=N)N)C(=O)N[C@@H](C)C(=O)N[C@@H](CCCNC(=N)N)C(=O)N[C@@H](CCC(=O)O)C(=O)N[C@@H](Cc1ccccc1)C(=O)N[C@H](C(=O)N[C@@H](CCC(N)=O)C(=O)N[C@@H](Cc1c[nH]c2ccccc12)C(=O)N[C@@H](CC(C)C)C(=O)N[C@@H](CC(C)C)C(=O)N[C@@H](CCCCNC(=O)CC[C@H](NC(=O)CC[C@H](NC(=O)[C@H](CO)NC(=O)[C@H](CCC(=O)O)NC(=O)[C@H](CO)NC(=O)CC[C@H](NC(=O)CC[C@H](NC(=O)CCCCCCCCCCCCCCCCC(=O)O)C(=O)O)C(=O)O)C(=O)O)C(=O)O)C(=O)N[C@H](C(N)=O)[C@@H](C)O)C(C)C [Compound A, N^ε28-[(4S)-4-carboxy-4-[[(4S)-4-carboxy-4-[[(2S)-2-[[(2S)-4-carboxy-2-[[(2S)-2-[[(4S)-4-carboxy-4-[[(4S)-4-carboxy-4-(17-carboxyheptadecanoylamino)butanoyl]amino]butanoyl]amino]-3-hydroxypropanoyl]amino]butanoyl]amino]-3-hydroxypropanoyl]amino]butanoyl]amino]butanoyl]-[Aib2,Leu10,Glu15,Lys17,Arg20,Glu21,Leu27,Lys28]-Glucagon amide] (H-H[Aib]QGTFTSDLSKYLESKRAREFVQWLLK([γGlu-γGlu-Ser-Glu-Ser-γGlu-γGlu-C18 diacid])T-NH2) | the observed effect is bigger | the observed effect is bigger
0.8 nM | 1.6 nM | CC(C)C[C@H](NC(=O)[C@H](CC(=O)O)NC(=O)[C@H](CC(C)C)NC(=O)[C@H](Cc1ccc(O)cc1)NC(=O)[C@H](CCCCN)NC(=O)[C@H](CO)NC(=O)[C@H](CC(C)C)NC(=O)[C@H](CC(=O)O)NC(=O)[C@H](CO)NC(=O)[C@@H](NC(=O)[C@H](Cc1ccccc1)NC(=O)[C@@H](NC(=O)CNC(=O)[C@H](CCC(N)=O)NC(=O)C1(NC(=O)[C@@H](N)Cc2c[nH]cn2)CCC1)[C@@H](C)O)[C@@H](C)O)C(=O)N[C@@H](CCCNC(=N)N)C(=O)N[C@@H](CCCNC(=N)N)C(=O)N[C@@H](C)C(=O)N[C@@H](CCCNC(=N)N)C(=O)N[C@@H](CC(=O)O)C(=O)N[C@@H](Cc1ccccc1)C(=O)N[C@H](C(=O)N[C@@H](CCC(N)=O)C(=O)N[C@@H](Cc1c[nH]c2ccccc12)C(=O)N[C@@H](CC(C)C)C(=O)N[C@@H](CC(C)C)C(=O)N[C@@H](CCCCNC(=O)CC[C@H](NC(=O)CC[C@H](NC(=O)COCCOCCNC(=O)COCCOCCNC(=O)CC[C@H](NC(=O)CC[C@H](NC(=O)CCCCCCCCCCCCCCCCC(=O)O)C(=O)O)C(=O)O)C(=O)O)C(=O)O)C(=O)N[C@H](C(N)=O)[C@@H](C)O)C(C)C [Compound B, N^ε28-[(4S)-4-carboxy-4-[[(4S)-4-carboxy-4-[[2-[2-[2-[[2-[2-[2-[[(4S)-4-carboxy-4-[[(4S)-4-carboxy-4-(17-carboxyheptadecanoylamino)butanoyl]amino]butanoyl]amino]ethoxy]ethoxy]acetyl]amino]ethoxy]ethoxy]acetyl]amino]butanoyl]amino]butanoyl]-[Acb2,Leu10,Leu16,Arg20,Leu27,Lys28]-Glucagon amide] (H-H[Ac4c]QGTFTSDLSKYLDLRRARDFVQWLLK([γGlu-γGlu-AEEA-AEEA-γGlu-γGlu-C18 diacid])T-NH2) | the observed effect is bigger | the observed effect is bigger
